Assay results from US8906852B2 (MethylGene Inc., priority 2010, dated 2014).

Target: T1, VEGFR/KDR (Homo sapiens, UniProt P35968)
T1 construct: made in house; host or cells: Sf9 cells (Spodoptera frugiperda), baculovirus
Assay: VEGFR/KDR kinase inhibition, DELFIA assay
Assay type: biochemical
Conditions: ATP 0.6 uM (2x Km), enzyme 5 nM
Experimental: Inhibition of VEGFR/KDR is measured in a DELFIA™ assay (Perkin Elmer). The substrate poly(Glu4, Tyr) is immobilized onto black high-binding polystyrene 96-well plates. The coated plates are washed and stored at 4° C. During the assay, the enzyme is pre-incubated with inhibitor and Mg-ATP on ice in polypropylene 96-well plates for 4 minutes, and then transferred to the coated plates. The subsequent kinase reaction takes place at 30° C. for 10-30 minutes. ATP concentrations in the assay are 0.6 uM for VEGFR/KDR (2× the Km). Enzyme concentration is 5 nM. After incubation, the kinase reactions are quenched with EDTA and the plates are washed. Phosphorylated product is detected by incubation with Europium-labeled anti-phosphotyrosine MoAb. After washing the plates, bound MoAb is detected by time-resolved fluorescence in a Gemini SpectraMax reader (Molecular Devices). Compounds are evaluated over a range of concentrations, and IC50 values (concentration of compounds giving 50% inhibition of enzymatic activity) are determined.

T1 sequence (P35968 806-1356): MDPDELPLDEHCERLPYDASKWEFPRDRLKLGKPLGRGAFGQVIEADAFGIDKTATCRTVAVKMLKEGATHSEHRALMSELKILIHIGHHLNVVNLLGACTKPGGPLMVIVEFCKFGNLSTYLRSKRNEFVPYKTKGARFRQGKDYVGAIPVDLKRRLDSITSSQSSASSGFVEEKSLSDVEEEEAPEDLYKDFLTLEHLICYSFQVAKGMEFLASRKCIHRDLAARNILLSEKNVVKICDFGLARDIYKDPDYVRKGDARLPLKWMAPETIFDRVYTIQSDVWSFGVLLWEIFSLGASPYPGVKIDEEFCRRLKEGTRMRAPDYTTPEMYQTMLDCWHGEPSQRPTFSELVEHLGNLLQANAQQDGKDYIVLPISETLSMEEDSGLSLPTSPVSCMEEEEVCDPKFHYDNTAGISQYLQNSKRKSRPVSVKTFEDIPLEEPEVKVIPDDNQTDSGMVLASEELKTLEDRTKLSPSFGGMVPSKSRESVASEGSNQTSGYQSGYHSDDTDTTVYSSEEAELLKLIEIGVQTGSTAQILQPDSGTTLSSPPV

Row | SMILES | IC50
1 | COCCN(Cc1ccc(-c2cc3nccc(Oc4ccc(NC(=O)NC5CC5)cc4F)c3s2)nc1)C(=O)CNC(=O)[C@@H](N)C(C)C [Compound 92, (S)-2-amino-N-(2-(((6-(7-(4-(3-cyclopropylureido)-2-fluorophenoxy)thieno[3,2-b]pyridin-2-yl)pyridin-3-yl)methyl)(2-methoxyethyl)amino)-2-oxoethyl)-3-methylbutanamide] | < 50 nM
2 | N[C@H]1CCN(Cc2ccc(-c3cc4nccc(Oc5ccc(NC(=O)NC6CC6)cc5F)c4s3)nc2)C1=O [Compound 108, (S)-1-(4-(2-(5-((3-amino-2-oxopyrrolidin-1-yl)methyl)pyridin-2-yl)thieno[3,2-b]pyridin-7-yloxy)-3-fluorophenyl)-3-cyclopropylurea] | < 50 nM
3 | N[C@@H]1CCN(Cc2ccc(-c3cc4nccc(Oc5ccc(NC(=O)NC6CC6)cc5F)c4s3)nc2)C1=O [Compound 109, (R)-1-(4-(2-(5-((3-amino-2-oxopyrrolidin-1-yl)methyl)pyridin-2-yl)thieno[3,2-b]pyridin-7-yloxy)-3-fluorophenyl)-3-cyclopropylurea] | < 50 nM
4 | COCCN(Cc1ccc(-c2cc3nccc(Oc4ccc(NC(=O)NC5CC5)cc4F)c3s2)cc1)C(C)=O [Compound 114, N-(4-(7-(4-(3-cyclopropylureido)-2-fluorophenoxy)thieno[3,2-b]pyridin-2-yl)benzyl)-N-(2-methoxyethyl)acetamide] | < 50 nM
5 | COCCN(Cc1cnc(-c2cc3nccc(Oc4ccc(NC(=O)Nc5ccc(F)cc5F)cc4F)c3s2)n1C)C(C)=O [Compound 117, N-((2-(7-(4-(3-(2,4-difluorophenyl)ureido)-2-fluorophenoxy)thieno[3,2-b]pyridin-2-yl)-1-methyl-1H-imidazol-5-yl)methyl)-N-(2-methoxyethyl)acetamide] | < 50 nM
6 | O=C(Nc1ccc(Oc2ccnc3cc(C#CCN4CCOCC4)sc23)c(F)c1)Nc1ccc(F)cc1F [Compound 119, 1-(2,4-difluorophenyl)-3-(3-fluoro-4-(2-(3-morpholinoprop-1-ynyl)thieno[3,2-b]pyridin-7-yloxy)phenyl)urea] | 100 to 250 nM
7 | O=C(Nc1ccccc1)Nc1ccc(Oc2ccnc3cc(C#CCN4CCOCC4)sc23)c(F)c1 [Compound 120, 1-(3-fluoro-4-(2-(3-morpholinoprop-1-ynyl)thieno[3,2-b]pyridin-7-yloxy)phenyl)-3-phenylurea] | 100 to 250 nM
8 | O=C(Nc1ccc(Oc2ccnc3cc(-c4ccc(CN5CCOCC5=O)cn4)sc23)c(F)c1)NC1CC1 [Compound 123, 1-cyclopropyl-3-(3-fluoro-4-(2-(5-((3-oxomorpholino)methyl)pyridin-2-yl)thieno[3,2-b]pyridin-7-yloxy)phenyl)urea] | < 50 nM
9 | CC(C)NC(=O)Nc1ccc(Oc2ccnc3cc(-c4ccc(C(=O)N5CCCC5)cc4)sc23)c(F)c1 [Compound 128, 1-(3-fluoro-4-(2-(4-(pyrrolidine-1-carbonyl)phenyl)thieno[3,2-b]pyridin-7-yloxy)phenyl)-3-isopropylurea] | < 50 nM
10 | O=C(Nc1ccc(Oc2ccnc3cc(-c4ccc(C(=O)N5CCCC5)cc4)sc23)c(F)c1)NC1CC1 [Compound 129, 1-cyclopropyl-3-(3-fluoro-4-(2-(4-(pyrrolidine-1-carbonyl)phenyl)thieno[3,2-b]pyridin-7-yloxy)phenyl)urea] | < 50 nM
11 | O=C(Nc1ccc(Oc2ccnc3cc(-c4ccc(CN5C(=O)CCC5=O)cn4)sc23)c(F)c1)NC1CC1 [Compound 140, 1-cyclopropyl-3-(4-(2-(5-((2,5-dioxopyrrolidin-1-yl)methyl)pyridin-2-yl)thieno[3,2-b]pyridin-7-yloxy)-3-fluorophenyl)urea] | < 50 nM
12 | O=C(Nc1ccc(Oc2ccnc3cc(-c4ccc(CN5CCNC5=O)cn4)sc23)c(F)c1)NC1CC1 [Compound 143, 1-cyclopropyl-3-(3-fluoro-4-(2-(5-((2-oxoimidazolidin-1-yl)methyl)pyridin-2-yl)thieno[3,2-b]pyridin-7-yloxy)phenyl)urea] | < 50 nM
13 | O=C(Nc1ccc(Oc2ccnc3cc(-c4cnn(CCN5CCOCC5)c4)sc23)c(F)c1)NC1CC1 [Compound 155, 1-cyclopropyl-3-(3-fluoro-4-(2-(1-(2-morpholinoethyl)-1H-pyrazol-4-yl)thieno[3,2-b]pyridin-7-yloxy)phenyl)urea] | < 50 nM
14 | COCCN(Cc1cnc(-c2cc3nccc(Oc4ccc(NC(=O)NC5CC5)cc4F)c3s2)n1C)C(=O)NC1CC1 [Compound 161, 1-((2-(7-(2-fluoro-4-cyclopropylaminocarbonylaminophenoxy)thieno[3,2-b]pyridin-2-yl)-1-methyl-1H-imidazol-5-yl)methyl)-3-cyclopropyl-1-(2-methoxyethyl)urea] | < 50 nM
15 | CCNC(=O)N(CCOC)Cc1cnc(-c2cc3nccc(Oc4ccc(NC(=O)NC(C)C)cc4F)c3s2)n1C [Compound 161-A, 1-((2-(7-(4-isopropylaminocarbonylamino-2-fluorophenoxy)thieno[3,2-b]pyridin-2-yl)-1-methyl-1H-imidazol-5-yl)methyl)-3-ethyl-1-(2-methoxyethyl)urea] | < 50 nM

Now from value to molecule:

Row | IC50 | SMILES
16 | < 50 nM | COCCN(Cc1ccc(-c2cc3nccc(Oc4ccc(NC(=O)NC5CC5)cc4F)c3s2)nc1)C(=O)CNC(=O)CN [Compound 92-A, 2-(2-aminoacetamido)-N-((6-(7-(4-(3-cyclopropylureido)-2-fluorophenoxy)thieno[3,2-b]pyridin-2-yl)pyridin-3-yl)methyl)-N-(2-methoxyethyl)acetamide]
17 | < 50 nM | COCCN(Cc1ccc(-c2cc3nccc(Oc4ccc(NC(=O)NC5CC5)cc4F)c3s2)nc1)C(=O)[C@@H](NC(=O)CN)C(C)C [Compound 93, (S)-2-(2-aminoacetamido)-N-((6-(7-(4-(3-cyclopropylureido)-2-fluorophenoxy)-thieno[3,2-b]pyridin-2-yl)pyridin-3-yl)methyl)-N-(2-methoxyethyl)-3-methylbutanamide]
18 | < 50 nM | CS(=O)(=O)c1cccc(NC(=O)Nc2ccc(Oc3ccnc4cc(-c5ccc(CN6CCCC6=O)cn5)sc34)c(F)c2)c1 [Compound 105]
19 | < 50 nM | NC(=O)c1cccc(NC(=O)Nc2ccc(Oc3ccnc4cc(-c5ccc(CN6CCCC6=O)cn5)sc34)c(F)c2)c1 [Compound 106, 3-(3-(3-fluoro-4-(2-(5-((2-oxopyrrolidin-1-yl)methyl)pyridin-2-yl)thieno[3,2-b]pyridin-7-yloxy)phenyl)ureido)benzamide]
20 | < 50 nM | O=C(Nc1ccc(Oc2ccnc3cc(-c4ccc(CN5CC[C@H](O)C5=O)cn4)sc23)c(F)c1)NC1CC1 [Compound 110, (S)-1-cyclopropyl-3-(3-fluoro-4-(2-(5-((3-hydroxy-2-oxopyrrolidin-1-yl)methyl)pyridin-2-yl)thieno[3,2-b]pyridin-7-yloxy)phenyl)urea]
21 | < 50 nM | COCCNCc1ccc(-c2cc3nccc(Oc4ccc(NC(=O)NC5CC5)cc4F)c3s2)cc1 [Compound 113]
22 | < 50 nM | COCCOCC(=O)N(CCOC)Cc1ccc(-c2cc3nccc(Oc4ccc(NC(=O)NC5CC5)cc4F)c3s2)cc1 [Compound 115, N-(4-(7-(4-(3-cyclopropylureido)-2-fluorophenoxy)thieno[3,2-b]pyridin-2-yl)benzyl)-2-(2-methoxyethoxy)-N-(2-methoxyethyl)acetamide]
23 | < 50 nM | COCCN(Cc1ccc(-c2cc3nccc(Oc4ccc(NC(=O)NC5CC5)cc4F)c3s2)cc1)C(=O)CO [Compound 115-A, N-(4-(7-(4-(3-cyclopropylureido)-2-fluorophenoxy)thieno[3,2-b]pyridin-2-yl)benzyl)-2-hydroxy-N-(2-methoxyethyl)acetamide]
24 | < 50 nM | COCCN(Cc1ccc(-c2cc3nccc(Oc4ccc(NC(=O)NC5CC5)c(Cl)c4)c3s2)nc1)C(C)=O [Compound 116, N-((6-(7-(3-chloro-4-(3-cyclopropylureido)phenoxy)thieno[3,2-b]pyridin-2-yl)pyridin-3-yl)methyl)-N-(2-methoxyethyl)acetamide]
25 | 50 to 100 nM | COCCN(Cc1cnc(-c2cc3nccc(Oc4ccc(NC(=O)NC(C)C)cc4F)c3s2)n1C)C(C)=O [Compound 117-A, N-((2-(7-(2-fluoro-4-(3-isopropylureido)phenoxy)thieno[3,2-b]-pyridin-2-yl)-1-methyl-1H-imidazol-5-yl)methyl)-N-(2-methoxyethyl)acetamide]
26 | < 50 nM | O=C(Nc1ccc(Oc2ccnc3cc(-c4ccc(C(=O)N5CCCC5)cc4)sc23)c(F)c1)Nc1ccc(F)cc1F [Compound 127, 1-(2,4-difluorophenyl)-3-(3-fluoro-4-(2-(4-(pyrrolidine-1-carbonyl)phenyl)thieno[3,2-b]pyridin-7-yloxy)phenyl)urea]
27 | < 50 nM | CS(=O)(=O)c1cccc(NC(=O)Nc2ccc(Oc3ccnc4cc(-c5ccc(C(=O)N6CCCC6)cc5)sc34)c(F)c2)c1 [Compound 130, 1-(3-fluoro-4-(2-(4-(pyrrolidine-1-carbonyl)phenyl)thieno[3,2-b]pyridin-7-yloxy)phenyl)-3-(3-(methylsulfonyl)phenyl)urea]
28 | < 50 nM | CN1CCN(Cc2ccc(-c3cc4nccc(Oc5ccc(NC(=O)NC6CC6)cc5F)c4s3)nc2)C1=O [Compound 141, 1-cyclopropyl-3-(3-fluoro-4-(2-(5-((3-methyl-2-oxoimidazolidin-1-yl)methyl)pyridin-2-yl)thieno[3,2-b]pyridin-7-yloxy)phenyl)urea]
29 | < 50 nM | O=C(Nc1ccc(Oc2ccnc3cc(-c4cnn(CCOC(=O)NC5CC5)c4)sc23)c(F)c1)NC1CC1 [Compound 157, 2-(4-(7-(4-(3-cyclopropylureido)-2-fluorophenoxy)thieno[3,2-b]pyridin-2-yl)-1H-pyrazol-1-yl)ethyl cyclopropylcarbamate]
